The values below come from patent publication US12527736B2, “Punica granatum extract and its cosmetic uses” (L'OREAL, priority 2019, dated 2026).

The test has as its system Normal human fibroblasts. The experiment in a line: Peroxidation of lipids test: protection against UVA-induced lipid peroxidation (8-iso-Prostanes release). Type of test: cell-based. Conditions: pure ellagic acid at 3 μM for 24 h, then UVA exposure, assayed 2 h30 after exposure. As for the experimental part:
An evaluation of the protection potential against UVA-induced lipid peroxidation of Punica granatum extract according to the invention obtained according to Example 1 was made and compared to the protection against UVA-induced lipid peroxidation of pure ellagic acid. Normal human fibroblasts are treated either with the Punica granatum extract according to the invention at 0.001% or with pure ellagic acid at 3 μM for 24 h and then exposed to a UVA dose inducing no more than 20% cell death. A control was performed consisting in normal human fibroblasts exposed to a UVA dose inducing no more than 20% cell death. 8-iso-Prostanes release is assayed 2 h30 after the exposure.

For the compound `O=c1oc2c(O)c(O)cc3c(=O)oc4c(O)c(O)cc1c4c23` [Ellagic acid, ellagic acid], the “protection against lipid peroxidation” value (UV-exposed control = 0%) came to 35%. Further, the “release of 8-iso-Prostanes” value (UV-exposed control = 100%) was found to be 65%.
